“Also recorded” adds a separate entry of the source.
Tests used:
IL-1α = test: Rat apical periodontitis model: level of expression of IL-1α in the lesions by real-time PCR; type: in vivo; conditions: male Wistar rats, 150 mg/kg orally twice per day, after 21 days, vs control group
Description: (§1) An experiment was conducted using six-week-old male Wistar rats. After the pulp of the mandibular first molar was exposed using a round bar, apical periodontitis was induced by extracting the pulp and opening it inside the oral cavity. In the experimental groups, monosodium (2S,3S)-3-[[(1S)-1-isobutozymethyl-3-methylbutyl]-carbamoyl]oxirane-2-carboxylate (compound A: 150 mg/kg) was orally administered twice per day. A non-administration group was used as a control. After 21 days, the rats were euthanized and the jawbone surrounding each mandibular molar was extracted. The left side was fixed in 4% paraformaldehyde/phosphate buffer solution (PBS) (4° C., 12 hours), and then the size of the apical lesion was measured by micro-CT imaging (Shimadzu SMX-90CT). After that, it was decalcified with 15% EDTA solution and embedded in OCT compound, and frozen slices 7 μm thick were made. […] On the right side, the lesion portion surrounding the apex was extracted as a lump together with the apex, and after RNA extraction (Qiagen: RNeasy Lipid Tissue Mini Kit), cDNA was created by ordinary methods (Invitrogen: Superscript III), and the levels of expression of inflammatory cytokines (IL-1α and IL-6) were measured by real-time PCR (BioRad: DNA Engine Opticon 2; Invitrogen: Platinum SYBR Green qPCR SuperMix).

[1] = system: rat experimental apical periodontitis; test: Rat apical periodontitis model: size of apical lesions by micro-CT; type: in vivo; conditions: male Wistar rats, 150 mg/kg orally twice per day
Description: Using a rat apical periodontitis model, pharmacological tests were conducted for monosodium (2S,3S)-3-[[(1S)-1-isobutozymethyl-3-methylbutyl]-carbamoyl]oxirane-2-carboxylate.
as §1, with “SMX-90CT).” for “SMX-90CT). After that, it was decalcified with 15% EDTA solution and embedded in OCT compound, and frozen slices 7 μm thick were made.”

[2] = system: osteoclasts on the alveolar bone surrounding the apex; test: Rat apical periodontitis model: histological examination (HE and TRAP staining) of osteoclasts; type: in vivo; conditions: male Wistar rats, 150 mg/kg orally twice per day, after 21 days, vs control group
Description: as §1

cathepsin K = molecular target: T1, cathepsin K (Homo sapiens, UniProt P43235); conditions: known from Patent Reference 4 (WO 99/11640); cited from earlier work
T1 sequence (P43235 115-329): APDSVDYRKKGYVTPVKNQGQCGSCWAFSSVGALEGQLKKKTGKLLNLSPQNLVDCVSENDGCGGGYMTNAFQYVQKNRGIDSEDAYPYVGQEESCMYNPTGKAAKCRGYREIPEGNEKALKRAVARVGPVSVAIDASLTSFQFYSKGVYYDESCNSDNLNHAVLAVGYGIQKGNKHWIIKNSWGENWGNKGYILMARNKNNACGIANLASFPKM

IL-6 = test: Rat apical periodontitis model: level of expression of IL-6 in the lesions by real-time PCR; type: in vivo; conditions: male Wistar rats, 150 mg/kg orally twice per day, after 21 days, vs control group
Description: as §1

CC(C)COC[C@H](CC(C)C)NC(=O)[C@H]1O[C@@H]1C(=O)[O-].[Na+] [compound A, monosodium (2S,3S)-3-[[(1S)-1-isobutozymethyl-3-methylbutyl]-carbamoyl]oxirane-2-carboxylate]
level of expression of IL-1α in the lesions (IL-1α): significantly suppressed | suppressive effect against progression of rat experimental apical periodontitis ([1]; 21 days): excellent suppressive effect | size of apical lesions by micro-CT ([1]; after 21 days, vs control group, 150 mg/kg): smaller apical lesions were formed; also recorded: their size was smaller than in the control group | number of osteoclasts on the alveolar bone surrounding the apex (histological examination) [2]: their number tended to be small | cathepsin K inhibiting action (cathepsin K): has a cathepsin K inhibiting action | level of expression of IL-6 in the lesions (IL-6): significantly suppressed
